Values joined by “and” are separate entries in the source; they are usually repeats but may differ in a detail not shown here. Equal entries are not always repeated. “Also recorded” adds a separate entry of the source. Where two headings read alike, the source gives them in different places. Marks after values point to notes of the source that are not given here.
Experiments:
[1] = Plasma binding (unbound fraction by ultracentrifugation); format: in vitro ADME; conditions: 5 μM drug, mean, n = 3
Method: Unbound fractions in brain homogenate and plasma were determined by ultracentrifugation as described previously. Briefly, drug-spiked matrices (5 μM drug in plasma or brain homogenate) were centrifuged at 600,000 g for 5 h at 37 °C (plasma) or 5 °C (brain). Aliquots of the middle (water) layer were added to an equal volume of blank matrix and extracted with 5 volumes of acetonitrile containing internal standard. Aliquots of the original spiked matrix were mixed with an equal volume of blank matrix and 2 volumes of plasma ultrafiltrate (plasma) or phosphate-buffered saline (tissue) and extracted with 10 volumes of acetonitrile. Extracts were centrifuged and analyzed by LC-MS-MS. Fraction unbound was calculated from the ratio of concentration in the water layer to that in the original spiked matrix, corrected for dilution as described previously.

[2] = molecular target: T1, human P-gp (Homo sapiens, UniProt P08183); assay: LLC-PK1-MDR1 cell permeation and efflux; format: in vitro ADME; conditions: cells expressing human P-gp
T1 construct: expressed in transfected cells; host or cells: LLC-PK1 (pig kidney epithelial cells) transfected with human MDR1 at Amgen
Method: (§1) Pig kidney epithelial cells (LLC-PK1) were obtained from American Type Culture Collection (Manassas, VA). Transfection with human MDR1 gene was conducted at Amgen (Thousand Oaks, CA). Bi-directional permeation assays were performed as described previously. […] Cells were seeded onto Transwell filter membranes (0.4 μm pore size, surface area = 0.7 cm2) at a density of 200,000 cells/well. Compound incubations (in duplicate) were performed 5 days post-seeding. To determine efflux, compounds were tested at 5 μM in the presence of 0.1% BSA. […] Samples were analyzed by LC-MS-MS.

[3] = molecular target: T2, P-gp (human MDR1) (Homo sapiens, UniProt P08183); assay: LLC-PK1-MDR1 cell permeation and efflux; format: in vitro ADME
T2 construct: expressed in transfected cells; host or cells: LLC-PK1 (pig kidney epithelial cells) transfected with human MDR1 at Amgen
Method: as §1

[4] = Brain and plasma concentrations in mice after intraperitoneal administration (LC-MS-MS), non-compartmental analysis; format: in vivo; conditions: for [drug],brain (free base equivalent) / [drug],plasma (free base equivalent): listed as JDTic.2HCl.H2O
Method: Doses are reported by weight of the specified salt. […] Body mass was measured to ±0.1 g.
Mice were sacrificed by cervical dislocation, then decapitated for collection of brain and blood samples. Trunk blood was collected in 1.5 mL polypropylene micro-centrifuge tubes, shaken with a few crystals of EDTA and cooled in ice-water. Samples were centrifuged at 14,000 rpm (revolutions per minute) for 15 minutes at 3 °C, then stored in glass sample vials at −20 °C until analysis. Brains were removed and immersed for 30 seconds in 2-methylbutane over dry ice, then stored in polypropylene tubes at −20 °C until sample preparation. Sample tubes were thawed in ice-water, distilled water was added (2:1 by weight) and the brain homogenized with a probe sonicator for 3 minutes over ice-water (Fisher Sonic Dismembrator 300 at 35% power). The probe was rinsed with ethanol and distilled water between samples. Brain homogenate was stored in glass sample vials at −20 °C until analysis by LC-MS-MS.
Drug concentrations (ng mL^-1) refer to the free base, and were measured by liquid chromatography-tandem mass spectrometry (LC-MS-MS) as described previously. Briefly, samples were shaken with 3 volumes of methanol and centrifuged at 3000 g. Aliquots of the supernatants were diluted with 5 volumes of water containing an appropriate internal standard. Extracts from in vitro and in vivo experiments were analyzed by multiple reaction monitoring on an API3000 or API4000 LC-MS-MS system with electrospray ion source, controlled and analyzed using the Analyst software package (Applied Biosystems, Foster City, CA). Chromatography was conducted on a Sprite Armor C18 analytical column (20 × 2.1 mm, 10 μm particle size, Analytical Sales and Products, Pompton Plains, NJ) with a 0.5 μm PEEK guard filter. Compounds were eluted with a gradient from 2% to 95% acetonitrile in water, both containing 0.1% formic acid. Compounds were detected in positive ion mode, tuned to the mass transition with the largest intensity. Analyte concentrations were determined by comparison of analyte:internal standard peak area ratios to those of standards prepared in the appropriate matrices.
For calculation of mean concentrations, the earliest values below the MRC were substituted by MRC ÷ 2, as recommended elswhere. Pharmacokinetic parameters were calculated from mean concentrations using PKSolver, employing non-compartmental analysis for extravascular administration. Curves in figures were fitted using Origin 8.5 (OriginLab, Northampton, MA) using 2-compartment models. Confidence intervals and two-tailed p values (unpaired t test) were calculated using Graphpad Quickcalcs. One outlier was identified using Grubbs' test (p < 0.01) and excluded from the analysis; see Additional file 1.

[5] = 0.5 h, 10 mg/kg i.p., individual mice, 10 mg/kg
[6] = 1 h, 10 mg/kg i.p., individual mice, 10 mg/kg
[7] = 2 h, 10 mg/kg i.p., individual mice, 10 mg/kg
[8] = 4 h, 10 mg/kg i.p., individual mice, 10 mg/kg
[9] = 24 h, 10 mg/kg i.p., individual mice, 10 mg/kg

T2 sequence (P08183 whole entry): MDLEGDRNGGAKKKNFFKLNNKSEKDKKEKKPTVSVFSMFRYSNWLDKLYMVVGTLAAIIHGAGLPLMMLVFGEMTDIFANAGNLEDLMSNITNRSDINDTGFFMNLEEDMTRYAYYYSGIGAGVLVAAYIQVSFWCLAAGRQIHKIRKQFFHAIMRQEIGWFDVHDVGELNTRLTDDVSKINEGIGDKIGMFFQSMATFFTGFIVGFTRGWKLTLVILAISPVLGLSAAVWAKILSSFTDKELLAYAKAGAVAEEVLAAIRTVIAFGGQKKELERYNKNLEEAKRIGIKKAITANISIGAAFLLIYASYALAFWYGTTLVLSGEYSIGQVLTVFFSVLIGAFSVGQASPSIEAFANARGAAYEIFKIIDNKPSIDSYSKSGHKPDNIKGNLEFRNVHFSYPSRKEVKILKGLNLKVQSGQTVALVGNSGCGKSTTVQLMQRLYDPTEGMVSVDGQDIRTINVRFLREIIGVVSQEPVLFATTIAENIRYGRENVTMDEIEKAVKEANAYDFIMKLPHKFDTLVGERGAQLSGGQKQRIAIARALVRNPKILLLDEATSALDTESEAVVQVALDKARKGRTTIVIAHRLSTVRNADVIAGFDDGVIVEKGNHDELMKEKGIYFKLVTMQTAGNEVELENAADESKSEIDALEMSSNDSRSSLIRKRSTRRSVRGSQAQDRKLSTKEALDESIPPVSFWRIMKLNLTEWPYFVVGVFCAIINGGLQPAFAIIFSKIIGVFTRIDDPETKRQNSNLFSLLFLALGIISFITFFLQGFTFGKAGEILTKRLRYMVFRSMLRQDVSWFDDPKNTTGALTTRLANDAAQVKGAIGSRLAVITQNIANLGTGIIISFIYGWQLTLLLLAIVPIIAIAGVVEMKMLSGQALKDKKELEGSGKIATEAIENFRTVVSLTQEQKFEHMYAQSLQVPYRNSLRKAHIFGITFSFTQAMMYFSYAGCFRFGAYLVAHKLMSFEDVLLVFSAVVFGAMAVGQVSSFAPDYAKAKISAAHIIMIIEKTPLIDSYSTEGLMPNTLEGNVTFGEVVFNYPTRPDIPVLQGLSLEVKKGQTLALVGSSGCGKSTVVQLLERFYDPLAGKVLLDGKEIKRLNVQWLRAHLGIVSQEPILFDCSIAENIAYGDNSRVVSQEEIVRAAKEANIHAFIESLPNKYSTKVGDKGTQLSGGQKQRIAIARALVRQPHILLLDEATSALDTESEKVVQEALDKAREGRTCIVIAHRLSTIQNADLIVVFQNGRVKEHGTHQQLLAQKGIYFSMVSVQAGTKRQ
T1 sequence (P08183 whole entry): as above

Compound: CC(C)[C@@H](CN1CC[C@@](C)(c2cccc(O)c2)[C@@H](C)C1)NC(=O)[C@H]1Cc2ccc(O)cc2CN1 [JDTic, (3R)-7-Hydroxy-N-((1S)-1-{[(3R,4R)-4-(3-hydroxyphenyl)-3,4-dimethyl-1-piperidinyl]methyl}-2-methylpropyl)-1,2,3,4-tetrahydro-3-isoquinolinecarboxamide]
- fraction unbound at 5 h, 5 μM [1]: 0.19
- Active transport / P-gp-mediated efflux [2]: showed P-gp-mediated efflux; also recorded: very high efflux ratio
- Papp A→B at 120 min, 5 μM ([3]; pig (LLC-PK1 cells) transfected with human MDR1, LLC-PK1, apical to basolateral, 5 μM, 0.1% BSA, 120 min, n = 2): 0.5 ×10⁻⁶ cm/s
- Papp B→A at 120 min, 5 μM ([3]; pig (LLC-PK1 cells) transfected with human MDR1, LLC-PK1, basolateral to apical, 5 μM, 0.1% BSA, 120 min, n = 2): 24 ×10⁻⁶ cm/s
- efflux ratio at 120 min, 5 μM ([3]; pig (LLC-PK1 cells) transfected with human MDR1, LLC-PK1-MDR1 monolayers, read-out: Efflux ratio (B → A/A → B)): 48
- Time of maximal mean plasma level ([4]; 10 mg kg^-1 i.p., mice): approximately 30 minutes
- [drug],brain (free base equivalent) [4, 5]: 66.3 ng/g and 60.3 ng/g and 155 ng/g and 37.5 ng/g and 49.5 ng/g and 57.9 ng/g
- [drug],plasma (free base equivalent) [4, 5]: 263 ng/mL and 237 ng/mL and 330 ng/mL and 248 ng/mL and 145 ng/mL
- [drug],brain (free base equivalent) [4, 6]: 61.5 ng/g and 45.3 ng/g and 38.1 ng/g and 116 ng/g and 49.2 ng/g and 56.7 ng/g
- [drug],plasma (free base equivalent) [4, 6]: 152 ng/mL and 270 ng/mL and 114 ng/mL and 126 ng/mL and 130 ng/mL and 134 ng/mL
- [drug],brain (free base equivalent) [4, 7]: 48.3 ng/g and 36.9 ng/g
- [drug],plasma (free base equivalent) [4, 7]: 57.3 ng/mL and 71 ng/mL
- [drug],brain (free base equivalent) [4, 8]: 80.4 ng/g and 46.2 ng/g
- [drug],plasma (free base equivalent) [4, 8]: 69.6 ng/mL and 40.3 ng/mL and 30 ng/mL
- [drug],brain (free base equivalent) [4, 9]: 30.3 ng/g and 32.1 ng/g
- [drug],plasma (free base equivalent) [4, 9]: <4 ng/mL
- [drug],brain (free base equivalent) ([4]; 48 h, 10 mg/kg i.p., individual mice, 10 mg/kg): 936* ng/g and 32.7 ng/g and 16.7 ng/g
- [drug],brain (free base equivalent) ([4]; 168 h, 10 mg/kg i.p., individual mice, 10 mg/kg): <12 ng/g (2×) and 43.8 ng/g
- Peak unbound brain level ([4]; at 30 minutes, 10 mg kg^-1 i.p., estimate): up to 4 nM
- AUMC 0-inf_obs ([4]; brain NCA, 10 mg/kg i.p.): 3158084 ng/ml*h^2
- Tlag ([4]; brain NCA, 10 mg/kg i.p.): 0 h
- C max,brain ([4]; brain, 10 mg kg^-1 i.p., mice): 71 ng/mL
- Decline of mean plasma concentration from peak ([4]; by 24 hours, 10 mg kg^-1 i.p.): at least 98%
- concentration at 4 h ([4]; male, Swiss-Webster (Crl:CFW(SW)), mouse, brain, intraperitoneal, 10 mg/kg, 4 h, 10 mg/kg, read-out: Conc (brain, NCA input)): 62.4 ng/mL
- concentration at 24 h ([4]; male, Swiss-Webster (Crl:CFW(SW)), mouse, brain, intraperitoneal, 10 mg/kg, 24 h, 10 mg/kg, read-out: Conc (brain, NCA input)): 30.9 ng/mL
- concentration at 48 h ([4]; male, Swiss-Webster (Crl:CFW(SW)), mouse, brain, intraperitoneal, 10 mg/kg, 48 h, 10 mg/kg, read-out: Conc (brain, NCA input)): 24.7 ng/mL
- concentration at 168 h ([4]; male, Swiss-Webster (Crl:CFW(SW)), mouse, brain, intraperitoneal, 10 mg/kg, 168 h, 10 mg/kg, read-out: Conc (brain, NCA input)): 18.6 ng/mL
- concentration at 4 h ([4]; male, Swiss-Webster (Crl:CFW(SW)), mouse, brain, ip, 10 mg/kg, 4 h, 10 mg/kg i.p., individual mice, read-out: [drug],brain (free base equivalent)): 60.6 ng/g
- concentration at 4 h ([4]; male, Swiss-Webster (Crl:CFW(SW)), mouse, brain, ip, 10 mg/kg, 4 h, 10 mg/kg i.p., read-out: mean (brain)): 62.4 ng/g
- concentration at 24 h ([4]; male, Swiss-Webster (Crl:CFW(SW)), mouse, brain, ip, 10 mg/kg, 24 h, 10 mg/kg i.p., individual mice, read-out: [drug],brain (free base equivalent)): 30.3 ng/g
- concentration at 24 h ([4]; male, Swiss-Webster (Crl:CFW(SW)), mouse, brain, ip, 10 mg/kg, 24 h, 10 mg/kg i.p., read-out: mean (brain)): 30.9 ng/g
- concentration at 48 h ([4]; male, Swiss-Webster (Crl:CFW(SW)), mouse, brain, ip, 10 mg/kg, 48 h, 10 mg/kg i.p., outlier excluded, read-out: mean (brain)): 24.7 ng/g
- concentration at 168 h ([4]; male, Swiss-Webster (Crl:CFW(SW)), mouse, brain, ip, 10 mg/kg, 168 h, 10 mg/kg i.p., <MRC substituted by MRC/2, read-out: mean (brain)): 18.6 ng/g
- AUC(0-inf) ([4]; male, Swiss-Webster (Crl:CFW(SW)), mouse, brain, ip, 10 mg/kg, brain NCA, 10 mg/kg i.p., read-out: AUC 0-inf_obs): 10300 ng·h/mL
- Kp uu ([4]; male, Swiss-Webster (Crl:CFW(SW)), mouse, brain/plasma (unbound), ip, supplement, 10 mg/kg i.p., read-out: Kp,uu,brain (AUC0–∞,brain,u / AUC0–∞,p,u)): < 1.42
- Kp ([4]; male, Swiss-Webster (Crl:CFW(SW)), mouse, brain/plasma, ip, 10 mg/kg, supplement, 10 mg/kg i.p., read-out: Kp,brain (AUC0–∞,brain / AUC0–∞,p)): 11.6
- MRT inf ([4]; male, Swiss-Webster (Crl:CFW(SW)), mouse, ip, brain NCA, 10 mg/kg i.p., read-out: MRT 0-inf_obs): 12.8 days
- Kp uu ([4]; male, Swiss-Webster, mouse, brain and plasma (unbound), ip, 10 mg kg^-1, 10 mg kg^-1 i.p., mice, read-out: K p,uu,brain (AUC0–∞,brain,u/AUC0–∞,p,u)): ≤ 1.4
- Kp uu ([4]; male, Swiss-Webster, mouse, brain and plasma (unbound), ip, 10 mg/kg, 10 mg kg^-1 i.p., mice, read-out: Cmax,brain,u/Cmax,p,u): < 0.04
- Kp ([4]; male, Swiss-Webster, mouse, brain and plasma, ip, 10 mg kg^-1, 10 mg kg^-1 i.p., mice, read-out: K p,brain (AUC0–∞,brain/AUC0–∞,p)): 11.6
- Kp ([4]; male, Swiss-Webster, mouse, brain and plasma, ip, 10 mg/kg, 10 mg kg^-1 i.p., mice, read-out: Cmax,brain/Cmax,p): 0.29
- concentration at 0.5 h ([4]; male, Swiss-Webster, mouse, brain, intraperitoneal, 10 mg/kg, 0.5 h, 10 mg/kg, read-out: Conc (brain, NCA input)): 71.1 ng/mL
- concentration at 1 h ([4]; male, Swiss-Webster, mouse, brain, intraperitoneal, 10 mg/kg, 1 h, 10 mg/kg, read-out: Conc (brain, NCA input)): 61.1 ng/mL
- concentration at 2 h ([4]; male, Swiss-Webster, mouse, brain, intraperitoneal, 10 mg/kg, 2 h, 10 mg/kg, read-out: Conc (brain, NCA input)): 38.4 ng/mL
- half-life ([4]; male, Swiss-Webster, mouse, brain, ip, 10 mg/kg, 10 mg kg^-1 i.p., mice, read-out: Terminal half-life in brain (converted)): ~9 days

Source: publication PMC3411462, “Long-acting κ opioid antagonists nor-BNI, GNTI and JDTic: pharmacokinetics in mice and lipophilicity” (BMC Pharmacology, 2012)
